Laboratory results from patent publication US20260028326A1, “COMPOUND BASED ON ISOINDOLINE-SUBSTITUTED GLUTARIMIDE BACKBONE AND USE THEREOF” (GLUETACS THERAPEUTICS (SHANGHAI) CO., LTD., priority 2022, published 2026).

Columns and labels:
[1] = biological target: IKZF3 protein (Homo sapiens (Human), UniProt Q96SW2+Q9UKT9); experiment: Western-blot assay of substrate protein degradation in hPBMC, IKZF3; type: cell-based; settings: hPBMC cells, compound 500 nM, 24 hours, Western blot
[2] = biological target: IKZF1 protein (Homo sapiens (Human), UniProt Q13422+Q96SW2); experiment: Western-blot assay of substrate protein degradation in hPBMC, IKZF1; type: cell-based; settings: hPBMC cells, compound 500 nM, 24 hours, Western blot
[3] = test system: MM.1S cells; experiment: Tumor cell proliferation IC50 (CCK-8), MM.1S; settings: Homo sapiens, MM1.S, 72 h, read-out: IC50 for inhibiting the proliferation of tumor cells, MM.1S;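 also: viability of cultured cells read by CCK-8 reagent after compound exposure, growth inhibition curves fitted to derive IC50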
[4] = biological target: GSPT1 protein (Homo sapiens (Human), UniProt P15170+Q96SW2); experiment: Western-blot assay of substrate protein degradation in hPBMC, GSPT1; type: cell-based; settings: hPBMC cells, compound 500 nM, 24 hours, Western blot
[5] = test system: CCRF-CEM cells; experiment: Tumor cell proliferation IC50 (CCK-8), CCRF-CEM; settings: Homo sapiens, 96 h, read-out: IC50 for inhibiting the proliferation of tumor cells, CCRF-CEM;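 also: cell viability measured with CCK-8 reagent after compound treatment, IC50 taken from plotted growth inhibition curves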
[6] = biological target: human Cereblon WT GST-tagged protein (Homo sapiens (Human), UniProt Q96SW2); experiment: CRBN-binding affinity, HTRF (CEREBLON BINDING kit)
How it was run: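 GST-tagged human WT Cereblon incubated with compound, then Thalidomide-Re tracer and anti-GST Eu antibody added. Displacement read by HTRF, reported as CRBN binding inhibition rate against blank control wells without protein.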

[7] = test system: Mino cells; experiment: Tumor cell proliferation IC50 (CCK-8), Mino; settings: Homo sapiens, 72 h, read-out: IC50 for inhibiting the proliferation of tumor cells, Mino;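 also: cell viability assessed with CCK-8 reagent after compound exposure, IC50 derived from plotted growth inhibition curves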

human Cereblon WT GST-tagged protein, sequence (Q96SW2 whole entry): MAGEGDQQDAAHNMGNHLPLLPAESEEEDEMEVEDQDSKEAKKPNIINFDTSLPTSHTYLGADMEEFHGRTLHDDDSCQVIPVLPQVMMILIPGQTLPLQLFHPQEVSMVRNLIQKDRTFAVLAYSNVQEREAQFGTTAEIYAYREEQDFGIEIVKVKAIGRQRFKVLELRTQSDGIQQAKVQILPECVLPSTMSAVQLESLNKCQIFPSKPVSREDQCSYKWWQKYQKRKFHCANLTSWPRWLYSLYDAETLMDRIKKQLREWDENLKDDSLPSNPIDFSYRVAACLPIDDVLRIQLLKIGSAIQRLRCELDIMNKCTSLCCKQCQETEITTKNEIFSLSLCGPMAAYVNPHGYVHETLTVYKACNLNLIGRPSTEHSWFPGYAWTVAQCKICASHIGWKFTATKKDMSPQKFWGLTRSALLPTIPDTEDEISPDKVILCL
IKZF3 protein, sequence (Q9UKT9 whole entry): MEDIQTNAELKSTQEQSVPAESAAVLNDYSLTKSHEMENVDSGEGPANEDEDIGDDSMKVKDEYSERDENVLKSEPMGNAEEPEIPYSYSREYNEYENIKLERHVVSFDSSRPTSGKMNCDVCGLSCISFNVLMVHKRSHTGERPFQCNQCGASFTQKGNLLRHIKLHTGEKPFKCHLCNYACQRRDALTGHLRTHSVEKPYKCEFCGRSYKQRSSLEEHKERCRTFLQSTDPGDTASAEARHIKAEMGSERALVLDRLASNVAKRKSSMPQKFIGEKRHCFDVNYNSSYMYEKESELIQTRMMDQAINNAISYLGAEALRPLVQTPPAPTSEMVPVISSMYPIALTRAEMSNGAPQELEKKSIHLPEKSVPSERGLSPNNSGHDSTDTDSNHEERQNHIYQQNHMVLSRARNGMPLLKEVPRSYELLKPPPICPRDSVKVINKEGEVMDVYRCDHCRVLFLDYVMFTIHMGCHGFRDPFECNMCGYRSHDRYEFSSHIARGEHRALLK
IKZF3 protein, sequence (Q96SW2 whole entry): as the sequence (Q96SW2 whole entry) above
IKZF3 protein, sequence (Q16531 whole entry partner): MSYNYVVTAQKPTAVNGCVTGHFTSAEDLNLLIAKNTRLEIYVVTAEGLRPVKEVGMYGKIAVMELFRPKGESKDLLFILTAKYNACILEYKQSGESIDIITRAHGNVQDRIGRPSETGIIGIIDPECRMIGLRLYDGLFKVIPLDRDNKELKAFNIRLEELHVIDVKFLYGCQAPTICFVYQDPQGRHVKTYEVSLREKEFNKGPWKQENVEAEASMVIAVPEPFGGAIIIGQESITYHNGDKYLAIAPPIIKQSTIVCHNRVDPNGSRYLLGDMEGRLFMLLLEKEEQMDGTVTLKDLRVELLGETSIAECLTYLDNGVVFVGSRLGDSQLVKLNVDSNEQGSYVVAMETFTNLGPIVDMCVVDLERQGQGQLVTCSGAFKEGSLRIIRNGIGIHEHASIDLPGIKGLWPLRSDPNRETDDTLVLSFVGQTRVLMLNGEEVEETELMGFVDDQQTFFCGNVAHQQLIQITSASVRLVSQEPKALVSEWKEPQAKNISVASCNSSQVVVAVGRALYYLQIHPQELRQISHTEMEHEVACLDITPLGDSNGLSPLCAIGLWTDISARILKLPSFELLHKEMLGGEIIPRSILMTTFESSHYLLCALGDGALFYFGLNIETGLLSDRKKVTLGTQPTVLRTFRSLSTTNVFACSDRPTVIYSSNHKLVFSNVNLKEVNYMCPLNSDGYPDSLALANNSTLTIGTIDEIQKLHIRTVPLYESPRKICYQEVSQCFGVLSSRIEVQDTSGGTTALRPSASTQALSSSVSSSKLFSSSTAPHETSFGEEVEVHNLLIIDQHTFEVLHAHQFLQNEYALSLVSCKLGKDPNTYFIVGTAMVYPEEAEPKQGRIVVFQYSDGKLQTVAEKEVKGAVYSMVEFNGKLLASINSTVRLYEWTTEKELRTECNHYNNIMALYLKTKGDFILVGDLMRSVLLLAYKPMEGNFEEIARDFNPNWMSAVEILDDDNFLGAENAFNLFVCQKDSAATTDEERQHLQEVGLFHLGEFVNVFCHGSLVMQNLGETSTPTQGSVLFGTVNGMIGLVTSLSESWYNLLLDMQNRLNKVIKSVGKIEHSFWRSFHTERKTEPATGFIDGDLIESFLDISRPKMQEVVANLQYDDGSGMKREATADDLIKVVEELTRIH
GSPT1 protein, sequence (P15170 whole entry): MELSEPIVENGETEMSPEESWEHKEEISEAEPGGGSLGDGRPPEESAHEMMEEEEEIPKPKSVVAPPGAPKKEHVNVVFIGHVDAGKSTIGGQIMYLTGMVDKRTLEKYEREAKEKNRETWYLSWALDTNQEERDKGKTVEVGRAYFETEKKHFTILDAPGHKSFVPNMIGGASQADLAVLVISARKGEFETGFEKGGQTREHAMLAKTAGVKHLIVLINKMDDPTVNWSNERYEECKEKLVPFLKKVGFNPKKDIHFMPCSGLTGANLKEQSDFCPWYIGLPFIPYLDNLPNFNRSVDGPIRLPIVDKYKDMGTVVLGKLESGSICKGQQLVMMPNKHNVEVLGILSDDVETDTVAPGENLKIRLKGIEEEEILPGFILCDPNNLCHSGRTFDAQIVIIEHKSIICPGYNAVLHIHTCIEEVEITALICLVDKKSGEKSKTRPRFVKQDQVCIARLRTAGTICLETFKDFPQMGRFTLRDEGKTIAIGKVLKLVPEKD
GSPT1 protein, sequence (Q96SW2 whole entry): as the sequence (Q96SW2 whole entry) above
GSPT1 protein, sequence (Q16531 whole entry partner): as the sequence (Q16531 whole entry partner) above
IKZF1 protein, sequence (Q13422 whole entry): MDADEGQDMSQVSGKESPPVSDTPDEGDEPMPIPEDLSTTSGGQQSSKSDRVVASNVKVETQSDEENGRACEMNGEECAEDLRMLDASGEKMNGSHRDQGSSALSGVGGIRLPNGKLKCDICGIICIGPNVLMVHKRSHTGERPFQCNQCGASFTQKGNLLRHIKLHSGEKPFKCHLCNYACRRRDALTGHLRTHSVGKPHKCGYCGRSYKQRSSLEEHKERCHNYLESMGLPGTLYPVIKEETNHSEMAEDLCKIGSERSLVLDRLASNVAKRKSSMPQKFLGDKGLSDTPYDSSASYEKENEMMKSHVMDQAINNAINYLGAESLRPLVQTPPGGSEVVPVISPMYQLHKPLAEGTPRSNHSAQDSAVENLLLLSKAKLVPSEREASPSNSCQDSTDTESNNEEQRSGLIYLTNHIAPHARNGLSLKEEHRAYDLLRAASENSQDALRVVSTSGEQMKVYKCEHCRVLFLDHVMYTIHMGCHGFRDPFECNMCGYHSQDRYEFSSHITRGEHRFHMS
IKZF1 protein, sequence (Q96SW2 whole entry): as the sequence (Q96SW2 whole entry) above
IKZF1 protein, sequence (Q16531 whole entry partner): as the sequence (Q16531 whole entry partner) above

SMILES | IC50 [3] [nM] | IC50 [5] [nM] | IC50 [6] [nM] | IC50 [7] [nM] | residual substrate protein level, IKZF3 [1] | residual substrate protein level, IKZF1 [2] | residual substrate protein level, GSPT1 [4]
CC1(C)CCC(CN2CCN(Cc3ccc4c(c3)C(=O)N(C3CCC(=O)NC3=O)C4=O)CC2)=C(c2ccc(Cl)cc2)C1 (stereo not shown) [GT-05364, 5-((4-((4′-chloro-5,5-dimethyl-3,4,5,6-tetrahydro-[1,1′-biphenyl]-2-yl)methyl)piperazin-1-yl)methyl)-2-(2,6-dioxopiperidin-3-yl)isoindoline-1,3-dione] | 100 to 500 | 100 to 500 |  |  | A (A represents a residual substrate protein level of <50%) | A (A represents a residual substrate protein level of <50%) | A (A represents a residual substrate protein level of <50%)
CC1(C)CCC(C(=O)N2CCN(Cc3cc4c(cc3F)C(=O)N(C3CCC(=O)NC3=O)C4)CC2)=C(c2ccc(Cl)cc2)C1 (stereo not shown) [GT-05526, 3-(5-((4-(4′-chloro-5,5-dimethyl-3,4,5,6-tetrahydro-[1,1′-biphenyl]-2-carbonyl)piperazin-1-yl)methyl)-6-fluoro-1-oxoisoindolin-2-yl)piperidine-2,6-dione] |  | 500 to 1000 | 690 |  | B (B represents a residual substrate protein level of >50%) | B (B represents a residual substrate protein level of >50%) | A (A represents a residual substrate protein level of <50%)
O=C1CCC(N2Cc3cc(CN4CCN(Cc5ccccc5-c5ccc(Cl)cc5)CC4C(F)(F)F)ccc3C2=O)C(=O)N1 (stereo not shown) [GT-05711, 3-(5-((4-((4′-chloro-[1,1′-biphenyl]-2-yl)methyl)-2-(trifluoromethyl)piperazin-1-yl)methyl)-1-oxoisoindolin-2-yl)piperidine-2,6-dione] |  | 100 to 500 | 490 |  |  |  | 

Now from value to molecule, other results behind:

IC50 [3] [nM] | IC50 [5] [nM] | IC50 [6] [nM] | IC50 [7] [nM] | SMILES | residual substrate protein level, IKZF3 [1] | residual substrate protein level, IKZF1 [2] | residual substrate protein level, GSPT1 [4]
100 to 500 |  | 610 | 500 to 1000 | Cn1nccc1-c1ccccc1CN1CCN(Cc2ccc3c(c2)CN(C2CCC(=O)NC2=O)C3=O)CC1 (stereo not shown) [GT-05702, 3-(5-((4-(2-(1-methyl-1H-pyrazol-5-yl)benzyl)piperazin-1-yl)methyl)-1-oxoisoindolin-2-yl)piperidine-2,6-dione] | A (A represents a residual substrate protein level of <50%) | A (A represents a residual substrate protein level of <50%) | A (A represents a residual substrate protein level of <50%)
50 to 100 |  | 710 | 50 to 100 | CC1(C)CCC(CN2CCN(Cc3ccc4c(c3)CN(C3CCC(=O)NC3=O)C4=O)CC2)=C(c2cnco2)C1 (stereo not shown) [GT-05848, 3-(5-((4-((4,4-dimethyl-2-(oxazol-5-yl)cyclohex-1-en-1-yl)methyl)piperazin-1-yl)methyl)-1-oxoisoindolin-2-yl)piperidine-2,6-dione] | A (A represents a residual substrate protein level of <50%) | A (A represents a residual substrate protein level of <50%) | B (B represents a residual substrate protein level of >50%)
100 to 500 |  | 990 | 100 to 500 | O=C1CCC(N2Cc3cc(CN4CCN(Cc5ccccc5-c5cnco5)CC4)ccc3C2=O)C(=O)N1 (stereo not shown) [GT-05849, 3-(5-((4-(2-(oxazol-5-yl)benzyl)piperazin-1-yl)methyl)-1-oxoisoindolin-2-yl)piperidine-2,6-dione] | A (A represents a residual substrate protein level of <50%) | A (A represents a residual substrate protein level of <50%) | A (A represents a residual substrate protein level of <50%)
 | 500 to 1000 |  |  | CC1(C)CCC(CN2CCN(Cc3cc4c(cc3F)C(=O)N(C3CCC(=O)NC3=O)C4)C(C(F)(F)F)C2)=C(c2ccc(Cl)cc2)C1 (stereo not shown) [GT-06101, 3-(5-((4-((4′-chloro-5,5-dimethyl-3,4,5,6-tetrahydro-[1,1′-biphenyl]-2-yl)methyl)-2-(trifluoromethyl)piperazin-1-yl)methyl)-6-fluoro-1-oxoisoindolin-2-yl)piperidine-2,6-dione] |  |  | 
